Data on 8 compounds can be found in US9932339B2, “Helquats with heteroaromatic substituents, preparation thereof, and use thereof as G-quadruplex stabilizers” (USTAV ORGANICKE CHEMIE A BIOCHEMIE AV CR, V.V.I., priority 2014, dated 2018).

One experiment deals with CCRF-CEM. In words: XTT cytotoxicity/proliferation assay, CCRF-CEM. Format: cell-based. Here is the method:
To assess the antiproliferative effects of the tested substances in vitro, tumor cell line CCRF-CEM derived from acute lymphoblastic leukemia and normal (healthy) HUVEC endothelial cells from umbilical vein were used. Both of these cell lines were cultured under optimal conditions for their growth in the appropriate medium in plastic bottles or plastic Petri dishes of various sizes (TPP, BD Biosciences) at 37° C., 5% CO2 and 95% humidity. HUVEC cells were purchased from BD Biosciences. CCRF-CEM cell line was obtained from ATCC/LGC Standards (American Type Cell Collection).
Suspension cell line CCRF-CEM is a continuous in vitro culture of acute lymphoblastic leukemia. Cell line CCRF-CEM was grown in RPMI 1640 medium (Sigma-Aldrich, cat. No. R8758) supplemented with 2 mmol·l^−1 glutamine (Invitrogen, cat. No. 35050-038), 10% fetal bovine serum (FBS; Sigma-Aldrich, cat. No. F9665), 100 IU/ml penicillin, 100 μg/ml streptomycin (Sigma-Aldrich, cat. No. P0781). Passaging was carried out 2-3 times a week. Population doubling time of CCRF-CEM cells under the used culture conditions is 20 hours.
For testing of the sensitivity of cell lines to studied helquats XTT cytotoxicity/proliferation assay for determination of cell viability was used. This method is based on the ability of metabolically active cells to reduce the yellow tetrazolium salt XTT to orange formazan. The rate of conversion is measured as the increase in absorbance at 492 nm and is proportional to the enzymatic activity of mitochondrial dehydrogenases and thus the number of metabolically active (viable) cells. The output is the IC50 value corresponding to the concentration of the test substance that causes a decrease in the number of viable cells by half (i.e. 50% slowdown of cell division) relative to the control, untreated population. Thus it reflects the effectiveness of the test substance towards the tested cell line.
Cells in exponential growth phase were plated into 96-well microtiter plate at a concentration of 3000 cells per well. Each well contained 90 μl of cell suspension. The following day, 10 μl of 10× concentrated test substances was added. Effect of helquats has been studied in the concentration range 1-100 μmol·l^−1 (or 1, 2.5, 5, 7.5, 10; 15; 25; 50 and 100 μmol·l^−1). In addition to the part of the plate containing the mentioned dilutions of test compounds there were always two control columns present, first column with medium alone (i.e. blank) and the second column with the cells in medium without test compounds (control). Into the blank and control wells the same volume of solvent (water) as the volume of the substances was added. After 72 hours of treatment with substances the measurement of viability was performed according to the manufacturer instructions. Briefly, into each well of a 96-well microtiter plate 50 μl of the prepared working solution of XTT (detection reagent) was added and then the microtiter plate was returned to the CO2 incubator. After 2 hours, the absorbance of each well at 492 nm (reference wavelength 690 nm) was measured using a multifunctional microplate reader (Tecan Genios, Austria).
The results of determination of the viability of cancer and normal cells after treatment with different concentrations of test substances are summarized in Table 9. […] Each concentration of a helquat was tested in triplicates within one IC50 value determination. Each of these IC50 value determinations was repeated in at least three independent experiments. Values above 100 μmol·l^−1 were obtained by extrapolation of data measured in the concentration range 0-100 μmol·l^−1 of helquats.
(Tetrazolium dyes change colour on reduction, which living cells bring about.)

Another experiment has as its system HUVEC. In words: XTT cytotoxicity/proliferation assay, HUVEC. In kind it is cell-based, human. Here is the method: To assess the antiproliferative effects of the tested substances in vitro, tumor cell line CCRF-CEM derived from acute lymphoblastic leukemia and normal (healthy) HUVEC endothelial cells from umbilical vein were used. Both of these cell lines were cultured under optimal conditions for their growth in the appropriate medium in plastic bottles or plastic Petri dishes of various sizes (TPP, BD Biosciences) at 37° C., 5% CO2 and 95% humidity. HUVEC cells were purchased from BD Biosciences. CCRF-CEM cell line was obtained from ATCC/LGC Standards (American Type Cell Collection). Normal human endothelial cells from the umbilical vein are adherent cells, which were grown in plastic Petri dishes coated with collagen I. The culture medium (E-STIMTM; BD Biosciences, cat. […] Then, 5 ml of complete culture media E-STIM™ was added and the cells were centrifuged (180×g, 7 minutes), resuspended and transferred in a desired amount in a new Petri dish with fresh medium. In the experiments cells between passages 3 and 8 (after thawing) were used. Population doubling time of HUVEC cells under the used culture conditions is 38 hours. For testing of the sensitivity of cell lines to studied helquats XTT cytotoxicity/proliferation assay for determination of cell viability was used. This method is based on the ability of metabolically active cells to reduce the yellow tetrazolium salt XTT to orange formazan. The rate of conversion is measured as the increase in absorbance at 492 nm and is proportional to the enzymatic activity of mitochondrial dehydrogenases and thus the number of metabolically active (viable) cells. […] Thus it reflects the effectiveness of the test substance towards the tested cell line. Cells in exponential growth phase were plated into 96-well microtiter plate at a concentration of 3000 cells per well. Each well contained 90 μl of cell suspension. The following day, 10 μl of 10× concentrated test substances was added. […] In addition to the part of the plate containing the mentioned dilutions of test compounds there were always two control columns present, first column with medium alone (i.e. blank) and the second column with the cells in medium without test compounds (control). Into the blank and control wells the same volume of solvent (water) as the volume of the substances was added. After 72 hours of treatment with substances the measurement of viability was performed according to the manufacturer instructions. Briefly, into each well of a 96-well microtiter plate 50 μl of the prepared working solution of XTT (detection reagent) was added and then the microtiter plate was returned to the CO2 incubator. After 2 hours, the absorbance of each well at 492 nm (reference wavelength 690 nm) was measured using a multifunctional microplate reader (Tecan Genios, Austria).

Experiment [1] relates to G-quadruplex in promoter region of the c-myc gene (NHE III1 segment). The experiment is described as follows: Dual luciferase analysis with plasmid pGL4.10-myc (luc2) in HGC-27 cells. As to conditions: for inhibition at 50 µM / activity at 50 µM: Homo sapiens; for inhibition at 50 µM: HGC-27, text summary of tab. 5 (50 μmol·l^−1), read-out: inhibition of expression of firefly luciferase as compared to control; for activity at 50 µM: read-out: luciferase expression relative to control (control = 100%). Format: cell-based, human. An excerpt:
A dual luciferase analysis was used to determine the degree of stabilization of G-quadruplex in a promoter region of the c-myc gene on cellular level. Stabilization of G-quadruplex is expressed as the ratio of expression of two luciferases (firefly and Renilla) from the co-transfected vectors pGL4.10-myc (luc2) and pRL-TK (Renilla) into a cell line HGC-27 expressing c-myc protein. Expression of the reporter gene (firefly luciferase) from pGL4.10-myc vector is controlled by the c-myc regulatory region of a length of 860 by (in the range from −306 to +554). The inserted sequence contains NHE III1 segment which forms G-quadruplex [Yang, D. et al. (2010) Future Med Chem., 2, 619], and is responsible for as much as 90% of the transcriptional activity of the c-myc gene.
Level of expression of firefly luciferase reporter gene corresponds to promoter activity of c-myc and thus to the degree of stabilization of the G-quadruplex. The signal is normalized to Renilla luciferase expression from pRL-TK vector under the control of a constitutive viral thymidine kinase (HSV-TK) promoter. The amount of Renilla luciferase expression serves as an internal control for normalization of firefly signal on transfection efficiency in the sample. Plasmids pGL4.10-myc (luc2) and pRL-TK were propagated in Escherichia coli (DH5α strain) and purified using the Qiagen Plasmid Mini and Midi kits. Cells were cultured under standard conditions and in exponential growth phase were seeded into a white 96-well microtiter plates. Transfection was carried out using a transfection reagent X-tremeGENE HP DNA in OptiMEM media for two hours. The ratio of reporter and control vector was 1:1 and the ratio of transfection reagent to the total amount of DNA was 1:1. Two hours after transfection helquats were added in a concentration of 50 μmol·l^−1. Quantity of firefly and Renilla luciferases in the samples was determined 24 hours after transfection. Dual luciferase analysis was performed using a commercially available kit (Promega, cat. No. E1960) according to manufacturer's instructions. Luminescence was measured using a luminometer EnSpire Alpha Plate Reader. The data obtained were normalized to the Renilla luciferase signal and then the values were related to control.

Setting [2] is: Homo sapiens, CCRF-CEM, 72 hours of treatment, read-out: IC50 CCRF CEM.
Setting [3] is: Homo sapiens, CCRF-CEM, 72 hours, summary of table 9, read-out: concentrations toxic towards CCRF-CEM cells.
[4] abbreviates: Homo sapiens, HUVEC, 72 hours of treatment, values above 100 μmol·l^−1 obtained by extrapolation, read-out: IC50 HUVEC.
The mark [5] stands for this setting: Homo sapiens, HUVEC, 72 hours, summary of table 9, read-out: concentrations non-toxic towards HUVEC cells.
Where [6] appears, read: helquat 50 μmol · l^−1, HGC-27, firefly normalized to Renilla, 24 hours after transfection.

Like-named read-outs stand apart in the source and are kept apart here.

Turning to `Cc1c(C)c2c(c3c1CC[n+]1ccc(/C=C/c4ccc5oc6ccccc6c5c4)cc1-3)-c1c3ccccc3cc[n+]1CC2` [MJA-C13-22, (E)-13-(2-(dibenzo[b,d]furan-2-yl)vinyl)-6,7-dimethyl-4,5,8,9-tetrahydroisoquinolino[1,2-a]pyrido[1,2-k][2,9]phenanthroline-3,10-diium trifluoromethanesulfonate], the IC50 in the experiment with CCRF-CEM (setting [2]) was at most 10 µM; with CCRF-CEM (setting [3]), below 25 µM; in the experiment on HUVEC (setting [4]), at least 100 µM; in the experiment with HUVEC (setting [5]), above 100 µM.

`C(=C\c1cc(/C=C/c2ccsc2)[n+]2c(c1)-c1c(ccc3c1-c1cccc[n+]1CC3)CC2)/c1ccsc1` [HTA-C5-9, 2,4-bis((E)-2-(thiophen-3-yl)vinyl)-6,7,10,11-tetrahydrodipyrido[2,1-a:1′,2′-k][2,9]phenanthroline-5,12-diium trifluoromethanesulfonate]: in experiment [1], the inhibition (usually how much of the control response was suppressed) at 50 µM was above 10%. Moreover, the activity at 50 µM in experiment [1] (setting [6]) came to 85%.

Turning to “19-((E)-2-(7-methyl-1H-indol-3-yl)vinyl)-6,7,8,11,12,13-hexahydropyrido[1′,2′″:1″,2″]azepino[4″,3″:5′,6′]benzo[1′,2′:3,4]azepino[1,2-a]quinoline-5,14-diium trifluoromethanesulfonate [MSC-C10-31]”, the IC50 is 11 to 25 µM in the experiment on CCRF-CEM (72 hours of treatment, read-out: IC50 CCRF CEM) and at least 51 µM in the experiment on HUVEC (72 hours of treatment, values above 100 μmol·l^−1 obtained by extrapolation, read-out: IC50 HUVEC).

`Cc1c(C)c2c(c3c1CC[n+]1ccc4ccccc4c1-3)-c1cccc(/C=C/c3cccc4c3sc3ccccc34)[n+]1CC2` [VDJA-C13-20, (E)-11-(2-(dibenzo[b,d]thiophen-4-yl)vinyl)-6,7-dimethyl-4,5,8,9-tetrahydroisoquinolino[1,2-a]pyrido[1,2-k][2,9]phenanthroline-3,10-diium trifluoromethanesulfonate]: the IC50 in the experiment with CCRF-CEM (setting [2]) was 11 to 25 µM; with CCRF-CEM (setting [3]) it was below 25 µM; in the experiment with HUVEC (setting [4]), at least 100 µM; in the experiment with HUVEC (setting [5]), above 100 µM.

As for “2,13-bis((E)-2-(5-bromothiophen-2-yl)vinyl-8,9-dimethyl-6,7,10,11-tetrahydrodipyrido[2,1-a: 1′,2′-k][2,9]phenanthroline-5,12-diium trifluoromethanesulfonate [MJB-C5-3]”, the “luciferase expression relative to control (control = 100%)” value in experiment [1] (setting [6]) was found to be 65%.

Consider `Cc1c(C)c2c(c3c1CC[n+]1ccc(/C=C/c4c[nH]c5ccc(Br)cc45)cc1-3)-c1c3ccccc3cc[n+]1CC2` [MJA-C9-30, (E)-13-(2-(5-bromo-1H-indol-3-yl)vinyl)-6,7-dimethyl-4,5,8,9-tetrahydroisoquinolino[1,2-a]pyrido[1,2-k][2,9]phenanthroline-3,10-diium trifluoromethanesulfonate], for which the inhibition at 50 µM in experiment [1] was above 40%. Also, the activity at 50 µM in experiment [1] (setting [6]) was determined as 55%.

`C(=C\c1c[nH]c2c1ccc1ccccc12)/c1cc[n+]2c(c1)-c1c(ccc3c1-c1c4ccccc4cc[n+]1CC3)CC2` [MSB-C13-16, (E)-13-(2-(1H-benzo[g]indol-3-yl)vinyl)-4,5,8,9-tetrahydroisoquinolino[1,2-a]pyrido[1,2-k][2,9]phenanthroline-3,10-diium trifluoromethanesulfonate]: the values for the IC50 in the experiment with CCRF-CEM (setting [2]) and in the experiment on HUVEC (setting [4]) were 11 to 25 µM and at least 51 µM, respectively.

Take `C(=C\c1cc(-c2ccccc2)cs1)/c1cc[n+]2c(c1)-c1c(ccc3c1-c1c4ccccc4cc[n+]1CC3)CC2` [MSB-C11-7, (E)-13-(2-(4-phenylthiophen-2-yl)vinyl)-4,5,8,9-tetrahydroisoquinolino[1,2-a]pyrido[1,2-k][2,9]phenanthroline-3,10-diium trifluoromethanesulfonate]: the IC50 with CCRF-CEM (setting [2]) is 11 to 25 µM; in the experiment on CCRF-CEM (setting [3]), below 25 µM; with HUVEC (setting [4]) it was at least 100 µM; in the experiment with HUVEC (setting [5]) it was above 100 µM.
